Results as given in publication PMC11396129, “Oxindole–benzothiazole hybrids as CDK2 inhibitors and anticancer agents: design, synthesis and biological evaluation” (BMC Chemistry, 2024).

Legend:
[1] = test system: A549/ATCC; assay: NCI 60 panel growth inhibition (SRB), non-small cell lung cancer; assay type: cell-based, human; conditions: 10 μM
Outline: (§1)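 Selected compounds progressed from a single-dose mean-graph screen to five-concentration testing. Percentage growth, with negative values indicating cell kill below Tz, was computed per level, giving TGI among three parameters.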

[2] = test system: EKVX; assay: as above; assay type: cell-based, human; conditions: 10 μM
Outline: as §1

[3] = test system: HOP-62; assay: as above; assay type: cell-based, human; conditions: HOP-62, 10 μM
Outline: as §1

[4] = test system: HOP-92; assay: as above; assay type: cell-based, human; conditions: HOP-92, 10 μM
Outline: as §1

[5] = test system: NCI-H226; assay: as above; assay type: cell-based, human; conditions: NCI-H226, 10 μM
Outline: as §1

[6] = test system: NCI-H23; assay: as above; assay type: cell-based, human; conditions: NCI-H23, 10 μM
Outline: as §1

[7] = test system: NCI-H322M; assay: as above; assay type: cell-based, human; conditions: 10 μM
Outline: as §1

[8] = test system: NCI-H460; assay: as above; assay type: cell-based, human; conditions: NCI-H460, 10 μM
Outline: as §1

[9] = test system: NCI-H522; assay: as above; assay type: cell-based, human; conditions: NCI-H522, 10 μM
Outline: as §1

[10] = test system: COLO 205; assay: NCI 60 panel growth inhibition (SRB), colon cancer; assay type: cell-based, human; conditions: COLO 205, 10 μM
Outline: as §1

[11] = test system: HCC-2998; assay: NCI 60 panel growth inhibition (SRB), colon cancer; assay type: cell-based, human; conditions: HCC-2998, 10 μM
Outline: as §1

[12] = test system: HCT-116; assay: NCI 60 panel growth inhibition (SRB), colon cancer; assay type: cell-based, human; conditions: HCT-116, 10 μM
Outline: as §1

[13] = test system: HCT-15; assay: NCI 60 panel growth inhibition (SRB), colon cancer; assay type: cell-based, human; conditions: HCT-15, 10 μM
Outline: as §1

[14] = test system: KM12; assay: NCI 60 panel growth inhibition (SRB), colon cancer; assay type: cell-based, human; conditions: KM12, 10 μM
Outline: as §1

[15] = test system: SW-620; assay: NCI 60 panel growth inhibition (SRB), colon cancer; assay type: cell-based, human; conditions: SW-620, 10 μM
Outline: as §1

[16] = test system: NCI/ADR-RES; assay: NCI 60 panel growth inhibition (SRB), ovarian cancer; assay type: cell-based, human; conditions: 10 μM
Outline: as §1

[17] = test system: OVCAR-8; assay: as above; assay type: cell-based, human; conditions: OVCAR-8, 10 μM
Outline: as §1

[18] = test system: 786-0; assay: NCI 60 panel growth inhibition (SRB), renal cancer; assay type: cell-based, human; conditions: 786-0, 10 μM
Outline: as §1

[19] = test system: A498; assay: NCI 60 panel growth inhibition (SRB), renal cancer; assay type: cell-based, human; conditions: A498, 10 μM
Outline: as §1

[20] = test system: ACHN; assay: NCI 60 panel growth inhibition (SRB), renal cancer; assay type: cell-based, human; conditions: 10 μM
Outline: as §1

[21] = test system: CAKI-1; assay: NCI 60 panel growth inhibition (SRB), renal cancer; assay type: cell-based, human; conditions: CAKI-1, 10 μM
Outline: as §1

[22] = test system: RXF 393; assay: NCI 60 panel growth inhibition (SRB), renal cancer; assay type: cell-based, human; conditions: RXF 393, 10 μM
Outline: as §1

[23] = test system: SN12C; assay: NCI 60 panel growth inhibition (SRB), renal cancer; assay type: cell-based, human; conditions: 10 μM
Outline: as §1

[24] = test system: TK-10; assay: NCI 60 panel growth inhibition (SRB), renal cancer; assay type: cell-based, human; conditions: TK-10, 10 μM
Outline: as §1

[25] = test system: UO-31; assay: NCI 60 panel growth inhibition (SRB), renal cancer; assay type: cell-based, human; conditions: UO-31, 10 μM
Outline: as §1

[26] = test system: DU-145; assay: NCI 60 panel growth inhibition (SRB), prostate cancer; assay type: cell-based, human; conditions: DU-145, 10 μM
Outline: as §1

[27] = test system: PC-3; assay: as above; assay type: cell-based, human; conditions: PC-3, 10 μM
Outline: as §1

[28] = test system: BT-549; assay: NCI 60 panel growth inhibition (SRB), breast cancer; assay type: cell-based, human; conditions: BT-549, 10 μM
Outline: as §1

[29] = test system: HS 578T; assay: as above; assay type: cell-based, human; conditions: 10 μM
Outline: as §1

[30] = test system: MCF7; assay: as above; assay type: cell-based, human; conditions: MCF7, 10 μM
Outline: as §1

[31] = test system: MDA-MB-231/ATCC; assay: as above; assay type: cell-based, human; conditions: 10 μM
Outline: as §1

[32] = test system: MDA-MB-468; assay: as above; assay type: cell-based, human; conditions: MDA-MB-468, 10 μM
Outline: as §1

[33] = test system: T-47D; assay: as above; assay type: cell-based, human; conditions: 10 μM
Outline: as §1

[34] = test system: NCI 60 cancer cell line panel; assay: NCI 60 panel growth inhibition (SRB), whole panel; assay type: cell-based, human; conditions: mean over NCI 60 panel, 10 μM
Outline: as §1

SMILES: COc1cccc(-c2nc3ccccc3s2)c1OCC(=O)NN=C1C(=O)Nc2ccc(C)cc21 [Compound 9h, 2-(2-(Benzo[d]thiazol-2-yl)-6-methoxyphenoxy)-N′-(5-methyl-2-oxoindolin-3-ylidene)acetohydrazide]
- GI% [1]: 24.44%
- GI% [2]: 27.92%
- GI% [3]: – (GI% < 5%)
- GI% [4]: 23.13%
- GI% [5]: 26.01%
- GI% [6]: 13.40%
- GI% [7]: 6.24%
- GI% [8]: – (GI% < 5%)
- GI% [9]: – (GI% < 5%)
- GI% [10]: 7.03%
- GI% [11]: – (GI% < 5%)
- GI% [12]: 22.91%
- GI% [13]: 5.56%
- GI% [14]: 8.90%
- GI% [15]: – (GI% < 5%)
- GI% [16]: 14.65%
- GI% [17]: 12.04%
- GI% [18]: 9.21%
- GI% [19]: – (GI% < 5%)
- GI% [20]: 11.83%
- GI% [21]: 36.68%
- GI% [22]: 25.38%
- GI% [23]: 9.88%
- GI% [24]: – (GI% < 5%)
- GI% [25]: 38.34%
- GI% [26]: – (GI% < 5%)
- GI% [27]: 46.62%
- GI% [28]: 18.44%
- GI% [29]: 9.01%
- GI% [30]: 37.74%
- GI% [31]: 13.89%
- GI% [32]: 26.10%
- GI% [33]: 41.06%
- Mean GI% [34]: 9.27%
- melting point: 244 to 246 °C

SMILES: COc1ccc2c(c1)C(=NNC(=O)COc1c(OC)cccc1-c1nc3ccccc3s1)C(=O)N2 [Compound 9i, 2-(2-(Benzo[d]thiazol-2-yl)-6-methoxyphenoxy)-N′-(5-methoxy-2-oxoindolin-3-ylidene)acetohydrazide]
- GI% [1]: 18.26%
- GI% [2]: 24.10%
- GI% [3]: – (GI% < 5%)
- GI% [4]: 31.66%
- GI% [5]: 29.04%
- GI% [6]: 11.65%
- GI% [7]: 5.89%
- GI% [8]: – (GI% < 5%)
- GI% [9]: 7.04%
- GI% [10]: – (GI% < 5%)
- GI% [11]: – (GI% < 5%)
- GI% [12]: 17.55%
- GI% [13]: 9.87%
- GI% [14]: 8.46%
- GI% [15]: – (GI% < 5%)
- GI% [16]: 10.58%
- GI% [17]: 11.59%
- GI% [18]: 5.62%
- GI% [19]: – (GI% < 5%)
- GI% [20]: 6.51%
- GI% [21]: 24.98%
- GI% [22]: 15.41%
- GI% [23]: 14.66%
- GI% [24]: – (GI% < 5%)
- GI% [25]: 30.29%
- GI% [26]: – (GI% < 5%)
- GI% [27]: 43.62%
- GI% [28]: 16.10%
- GI% [29]: – (GI% < 5%)
- GI% [30]: 23.12%
- GI% [31]: 10.30%
- GI% [32]: 30.66%
- GI% [33]: 37.57%
- Mean GI% [34]: 6.32%
- melting point: 144 to 146 °C
